Measurements reported in ChEMBL document CHEMBL4765394, “From irreversible to reversible covalent inhibitors: Harnessing the andrographolide scaffold for anti-inflammatory action” (Eur J Med Chem, 2020).
The source made the active and inactive calls. The rule behind the calls is not given here.

Experiments:
[1] = Aqueous stability of compound; type: physicochemical; conditions: buffer
RAW264.7 [2] = test: Antiinflammatory activity in mouse RAW264.7 cells assessed as inhibition of LPS-induced TNFalpha release at 5 to 10 uM preincubated for 1 hr followed by LPS stimulation and measured after 4 hrs by ELISA; type: functional, cell-based; conditions: dose 5-10 µM, time 5.0 hrs
RAW264.7 [3] = test: Antiinflammatory activity in mouse RAW264.7 cells assessed as inhibition of LPS-induced IL6 release at 5 to 10 uM preincubated for 1 hr followed by LPS stimulation and measured after 24 hrs by ELISA; type: functional, cell-based; conditions: dose 5-10 µM, time 25.0 hrs
[4] = GSH reactivity assessed as GSH adduct formation by measuring reduction in intracellular GSH level at 20 uM measured after 2 hrs by cell-based monochlorobimane fluorometric method; type: ADME; set-up: scale not given: the % may be the effect or the level left
RAW-Blue [5] = test: Inhibition of LPS-induced NF-kappaB activity in mouse RAW-Blue cells assessed as reduction in SEAP reporter activity at 5 to 20 uM preincubated for 1 hr followed by LPS stimulation and measured after 8 hrs by SEAP reporter gene assay; type: cell-based; conditions: dose 5-20 µM, time 9.0 hrs
RAW-Blue [6] = test: Inhibition of LPS-induced NF-kappaB activity in mouse RAW-Blue cells assessed as reduction in SEAP reporter activity at 5 to 20 uM preincubated for 1 hr followed by LPS stimulation and measured after 24 hrs by SEAP reporter gene assay; type: cell-based; conditions: dose 5-20 µM, time 25.0 hrs
[7] = GSH reactivity in PBS assessed as GSH adduct formation measured up to 8 hrs by HPLC-MS analysis; type: ADME; conditions: buffer
RAW-Blue [8] = test: Activation of NF-kappaB activity in mouse RAW-Blue cells assessed as increase in SEAP reporter activity at 30 uM measured after 24 hrs in presence of p38 inhibitor SB203580 by SEAP reporter gene assay; type: cell-based
RAW-Blue [9] = test: Activation of NF-kappaB activity in mouse RAW-Blue cells assessed as increase in SEAP reporter activity at 5 to 20 uM measured after 24 hrs by SEAP reporter gene assay; type: cell-based; conditions: filed as activator, dose 5-20 µM
[10] = GSH reactivity in PBS assessed as GSH adduct formation by measuring half life by HPLC-MS analysis; type: ADME
RAW-Blue [11] = test: Inhibition of LPS-induced NF-kappaB activity in mouse RAW-Blue cells assessed as reduction in SEAP reporter activity at 5 to 20 uM preincubated for 1 hr followed by LPS stimulation and measured after 8 to 24 hrs by SEAP reporter gene assay; type: cell-based; conditions: dose 5-20 µM, time 25.0 hrs
[12] = target: T1, Nuclear factor NF-kappa-B p105 subunit (Homo sapiens) (UniProt P19838); test: Inhibition of DNA binding activity of human NF-kappaB p50 at 200 uM measured after 1 hr by ELISA
T1 sequence (whole entry): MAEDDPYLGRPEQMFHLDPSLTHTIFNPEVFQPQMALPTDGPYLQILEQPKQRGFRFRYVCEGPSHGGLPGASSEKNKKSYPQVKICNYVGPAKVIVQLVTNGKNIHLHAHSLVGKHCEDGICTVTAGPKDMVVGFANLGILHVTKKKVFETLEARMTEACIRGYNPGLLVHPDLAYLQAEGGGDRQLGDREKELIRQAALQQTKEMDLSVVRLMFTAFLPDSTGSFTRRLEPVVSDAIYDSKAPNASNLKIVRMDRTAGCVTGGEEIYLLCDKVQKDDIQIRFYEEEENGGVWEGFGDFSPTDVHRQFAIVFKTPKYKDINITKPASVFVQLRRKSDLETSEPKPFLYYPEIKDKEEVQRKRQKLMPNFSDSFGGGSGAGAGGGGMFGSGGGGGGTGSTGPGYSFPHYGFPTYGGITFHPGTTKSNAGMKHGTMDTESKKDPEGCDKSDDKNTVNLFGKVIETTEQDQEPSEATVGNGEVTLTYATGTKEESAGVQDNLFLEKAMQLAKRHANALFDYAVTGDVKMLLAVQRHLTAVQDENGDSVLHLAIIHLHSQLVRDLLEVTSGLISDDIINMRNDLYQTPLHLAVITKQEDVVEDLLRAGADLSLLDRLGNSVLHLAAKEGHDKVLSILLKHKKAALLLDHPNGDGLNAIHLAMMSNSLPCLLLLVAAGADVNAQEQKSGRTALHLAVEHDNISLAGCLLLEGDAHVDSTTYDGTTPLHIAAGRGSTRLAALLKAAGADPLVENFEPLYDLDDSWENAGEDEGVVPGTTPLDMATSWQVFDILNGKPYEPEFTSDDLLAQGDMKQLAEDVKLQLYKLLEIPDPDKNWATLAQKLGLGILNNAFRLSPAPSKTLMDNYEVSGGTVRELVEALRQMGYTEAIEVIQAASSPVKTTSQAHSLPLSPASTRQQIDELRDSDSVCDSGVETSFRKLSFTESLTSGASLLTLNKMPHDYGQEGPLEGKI

RAW264.7 [13] = test: Cytotoxicity against mouse RAW264.7 cells assessed as reduction cell viability at 5 to 50 uM measured after 24 hrs by Celltiter-glo assay; type: cell-based; conditions: raw264.7, 24 h, dose 5-50 µM
RAW264.7 [14] = test: Cytotoxicity against mouse RAW264.7 cells assessed as reduction cell viability at 5 uM measured after 24 hrs by Celltiter-glo assay; type: cell-based; conditions: raw264.7, 24 h
[15] = GSH reactivity in PBS assessed as isomerization measured up to 24 hrs by HPLC-MS analysis; type: ADME; conditions: buffer
RAW264.7 [16] = test: Cytotoxicity against BSO-treated mouse RAW264.7 cells assessed as reduction cell viability measured after 24 hrs by Celltiter-glo assay; type: cell-based; conditions: raw264.7, 24 h, dose 10-20 µM
RAW264.7 [17] = test: Antiinflammatory activity in 2 hrs NAC-pretreated mouse RAW264.7 cells assessed as inhibition of LPS-induced TNFalpha release at 10 uM preincubated for 1 hr followed by LPS stimulation and measured after 4 hrs by ELISA relative to control; type: functional; conditions: time 5 hrs
RAW264.7 [18] = test: Antiinflammatory activity in 24 hrs NAC-pretreated mouse RAW264.7 cells assessed as inhibition of LPS-induced TNFalpha release at 10 uM preincubated for 1 hr followed by LPS stimulation and measured after 4 hrs by ELISA relative to control; type: functional; conditions: time 5 hrs
RAW264.7 [19] = test: Antiinflammatory activity in BSO-treated mouse RAW264.7 cells assessed as inhibition of LPS-induced TNFalpha release at 2.5 to 10 uM preincubated for 1 hr followed by LPS stimulation and measured after 4 hrs by ELISA; type: functional, cell-based; conditions: dose 2.5-10 µM, time 5.0 hrs
[20] = Cytotoxicity against human L02 cells assessed as reduction in cell viability measured after 24 hrs by Celltiter-glo assay; type: cell-based
[21] = Cytotoxicity against HEK293 cells assessed as reduction in cell viability measured after 24 hrs by Celltiter-glo assay; type: cell-based; conditions: human
RAW264.7 [22] = test: Activation of JNK phosphorylation in BSO-treated mouse RAW264.7 cells at 50 uM measured after 4 hrs by Western blot analysis; conditions: filed as activator
RAW264.7 [23] = test: Antiinflammatory activity in 4 hrs NAC-pretreated mouse RAW264.7 cells assessed as inhibition of LPS-induced TNFalpha release at 10 uM preincubated for 1 hr followed by LPS stimulation and measured after 4 hrs by ELISA relative to control; type: functional; conditions: time 5 hrs
RAW264.7 [24] = test: Activation of JNK phosphorylation in mouse RAW264.7 cells at 50 uM measured after 4 hrs by Western blot analysis; type: cell-based; conditions: filed as activator
RAW264.7 [25] = test: Cytotoxicity against mouse RAW264.7 cells assessed as reduction cell viability at 20 uM measured after 24 hrs by Celltiter-glo assay; type: cell-based; conditions: raw264.7, 24 h

Stabilty [1]	Compound	inhibition (RAW264.7 [2])	inhibition (RAW264.7 [3])	further results
Stable	C=C1CC[C@@H]2[C@](C)(CO)[C@H](O)CC[C@@]2(C)[C@@H]1C/C=C1/C(=O)Nc2ccccc21	inactive	inactive	–
Stable	C=C1CC[C@@H]2[C@](C)(CO)[C@H](O)CC[C@@]2(C)[C@@H]1C/C=C1\C(=O)Nc2ccc(F)cc21	–	inactive	–
Stable	C=C1CC[C@@H]2[C@](C)(CO)[C@H](O)CC[C@@]2(C)[C@@H]1C/C=C/C(=O)OCC	inactive	inactive	–
Stable	C=C1CC[C@@H]2[C@](C)(CO)[C@H](O)CC[C@@]2(C)[C@@H]1CC=O	inactive	inactive	–
Stable	C=C1CC[C@@H]2[C@](C)(CO)[C@H](O)CC[C@@]2(C)[C@@H]1C/C=C1/C=COC1=O	Active	Active	Activity [4]: > 70%; inhibition (RAW-Blue [5]): Active; inhibition (RAW-Blue [6]): inactive
Stable	C=C1CC[C@@H]2[C@](C)(CO)[C@H](O)CC[C@@]2(C)[C@@H]1C/C=C1\C=COC1=O	Active	Active	K [7]: 0.003539 M⁻¹ s⁻¹; Activity (RAW-Blue [8]): inactive; Activity [4]: > 70%; inhibition (RAW-Blue [5]): Active; inhibition (RAW-Blue [6]): inactive; Activity (RAW-Blue [9]): Active; t1/2 [10]: 0.05 h
Stable	C=C1CC[C@@H]2[C@](C)(CO)[C@H](O)CC[C@@]2(C)[C@@H]1C/C=C1\C[C@H](OC)OC1=O	–	inactive	–
Stable	C=C1CC[C@@H]2[C@](C)(CO)[C@H](O)CC[C@@]2(C)[C@@H]1C/C=C1\C(=O)OC[C@H]1O	inactive	–	inhibition (RAW-Blue [11]): inactive
Stable	C=C1CC[C@@H]2[C@](C)(CO)[C@H](O)CC[C@@]2(C)[C@@H]1C/C=C\C#N	–	inactive	–
–	C=C1CC[C@@H]2[C@](C)(CO)[C@H](O)CC[C@@]2(C)[C@@H]1C/C=C/C(C)O (some centres not stated)	–	–	inhibition [12]: inactive
Stable	C=C1CC[C@@H]2[C@](C)(CO)[C@H](O)CC[C@@]2(C)[C@@H]1C/C=C/C#N	inactive	inactive	–
Stable	C=C1CC[C@@H]2[C@](C)(CO)[C@H](O)CC[C@@]2(C)[C@@H]1C/C=C1\SC(=O)NC1=O	–	inactive	Activity (RAW264.7 [13]): Non-Toxic
Unstable	C=C1CC[C@@H]2[C@](C)(CO)[C@H](O)CC[C@@]2(C)[C@@H]1CC=C(C#N)C#N	–	–	–
–	CC(=O)CCC[C@@H]1[C@@H](C)CC[C@@H]2[C@](C)(CO)[C@H](O)CC[C@]21C	–	–	inhibition [12]: inactive
Stable	C=C1CC[C@@H]2[C@](C)(CO)[C@H](O)CC[C@@]2(C)[C@@H]1C/C=C1\C(=O)Nc2ccccc21	–	inactive	–
Stable	C=C1CC[C@@H]2[C@](C)(CO)[C@H](O)CC[C@@]2(C)[C@@H]1C/C=C/C(=O)c1ccccc1	Active	Active	Activity (RAW264.7 [14]): Toxic; K [7]: 6.036e-05 M⁻¹ s⁻¹; inhibition (RAW-Blue [5]): Active; Drug metabolism [15]: Metabolite_Notdetected; inhibition (RAW-Blue [6]): Active; t1/2 [10]: 2.12 h
Stable	C=C1CC[C@@H]2[C@](C)(CO)[C@H](O)CC[C@@]2(C)[C@@H]1C/C=C1/CCOC1=O	–	inactive	–
Stable	C=C1CC[C@@H]2[C@](C)(CO)[C@H](O)CC[C@@]2(C)[C@@H]1C/C=C1\CCOC1=O	inactive	inactive	CC50 (RAW264.7 [16]): > 30 µM
Stable	C=C1CC[C@@H]2[C@](C)(CO)[C@H](O)CC[C@@]2(C)[C@@H]1C/C=C1/C(=O)Nc2ccc(F)cc21	–	inactive	–
Stable	C=C1CC[C@@H]2[C@](C)(CO)[C@H](O)CC[C@@]2(C)[C@@H]1C/C=C1\C[C@@H](OC)OC1=O	–	inactive	–
Stable	C[C@H]1CC[C@@H]2[C@](C)(CO)[C@H](O)CC[C@@]2(C)[C@@H]1CC[C@@H]1C(=O)OC[C@H]1O	inactive	inactive	–
Stable	C=C1CC[C@@H]2[C@](C)(CO)[C@H](O)CC[C@@]2(C)[C@@H]1C/C=C1\SC(=S)NC1=O	inactive	inactive	Activity (RAW264.7 [13]): Non-Toxic
–	C=C(CO)C(=O)OC	inactive	inactive	–
Stable	C=C1CC[C@@H]2[C@](C)(CO)[C@H](O)CC[C@@]2(C)[C@@H]1C/C=C1/C(=O)OC[C@H]1O [ANDROGRAPHOLIDE]	Active	Active	inhibition at 10 µM (RAW264.7 [17]): 17%; K [7]: 2.44e-05 M⁻¹ s⁻¹; Activity (RAW-Blue [8]): inactive; inhibition at 10 µM (RAW264.7 [18]): 62%; inhibition (RAW264.7 [19]): Active; CC50 at 24 h [20]: 14.7 µM; CC50 at 24 h [21]: 26.2 µM; Activity (RAW264.7 [22]): Active; Activity (RAW-Blue [9]): Active; inhibition at 10 µM (RAW264.7 [23]): 30%; CC50 (RAW264.7 [16]): 10 µM; t1/2 [10]: 5.46 h; inhibition (RAW-Blue [11]): inactive; Activity (RAW264.7 [24]): Active; Activity (RAW264.7 [25]): Toxic
Stable	C=C1CC[C@@H]2[C@](C)(CO)[C@H](O)CC[C@@]2(C)[C@@H]1/C=C/C1=CCOC1=O	inactive	inactive	–
Stable	C=C1CC[C@@H]2[C@](C)(CO)[C@H](O)CC[C@@]2(C)[C@@H]1C/C=C1\NC(=O)NC1=O	–	inactive	Activity (RAW264.7 [13]): Non-Toxic
